From patent US10851083B2, “Benzoimidazoles as prolyl hydroxylase inhibitors” (Janssen Pharmaceutica NV, priority 2008, dated 2020) come the findings set out here.

Structures are written as SMILES.

One experiment addresses human PHD2181-417 (Homo sapiens (Human), UniProt Q9GZT9). Kind of experiment: PHD2 enzyme activity assay ([14C]-succinic acid production).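 Further: reaction ran 10 min with compound in Tris pH 7.5 buffer with catalase, DTT and ascorbate, labelled succinate freed of leftover 2-oxoglutarate by DNP precipitation, then beta counted.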 To be noted: PHD2181-417 polypeptide, HIF-1α peptide 10 μM, [5-14C]-2-oxoglutaric acid; 30 min pre-incubation; tested 10 μM to 3 nM. Type of experiment: biochemical.
The subject of another experiment is Hep-3B cells. Kind of experiment: Cellular assay: EPO secretion in Hep-3B cells. Type of experiment: cell-based, human. Set-up: EPO secretion, % of control compound: dose or concentration left out as unconfirmed. The following applies: Homo sapiens, Hep3B, 24 h, EPO secretion as percentage of control compound 7-[(4-Chloro-phenyl)-(5-methyl-isoxazol-3-ylamino)-methyl]-quinolin-8-ol, read-out: Cellular % EPO Stimulation.

Sequence of human PHD2181-417 (Q9GZT9 181-417): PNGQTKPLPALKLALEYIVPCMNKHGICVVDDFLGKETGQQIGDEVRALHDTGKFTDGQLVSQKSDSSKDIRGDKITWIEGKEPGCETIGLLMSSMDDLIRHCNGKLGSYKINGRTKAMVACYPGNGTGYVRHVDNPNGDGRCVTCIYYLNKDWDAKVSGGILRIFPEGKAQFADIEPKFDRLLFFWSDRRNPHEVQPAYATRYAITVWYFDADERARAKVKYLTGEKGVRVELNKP

As to `Cc1cc(C)c(CS(=O)(=O)c2cc3nc(-n4cc(C(=O)O)cn4)[nH]c3cc2Cl)c(C)c1` [Example 90, 1-[6-Chloro-5-(2,4,6-trimethyl-phenylmethanesulfonyl)-1H-benzoimidazol-2-yl]-1H-pyrazole-4-carboxylic Acid], the “Enzyme pIC50” value on human PHD2181-417 was 7.3. In addition, the EPO secretion, % of control compound with Hep-3B cells came out at 8.25%.
Regarding `COc1ccc(CS(=O)(=O)c2cc3nc(-n4cc(C(=O)O)cn4)[nH]c3cc2Cl)cc1` [Example 91, 1-[6-Chloro-5-(4-methoxy-phenylmethanesulfonyl)-1H-benzoimidazol-2-yl]-1H-pyrazole-4-carboxylic Acid], the “Enzyme pIC50” value on human PHD2181-417 was 7.7. In addition, in the experiment on Hep-3B cells, the EPO secretion, % of control compound amounted to 22%.
On the same counts, the results for `O=C(O)c1cnn(-c2nc3cc(S(=O)(=O)Cc4ccc(F)cc4)c(Cl)cc3[nH]2)c1` [Example 92, 1-[6-Chloro-5-(4-fluoro-phenylmethanesulfonyl)-1H-benzoimidazol-2-yl]-1H-pyrazole-4-carboxylic Acid] are 7.5 and 61.2%.
Regarding `O=C(O)c1cnn(-c2nc3cc(S(=O)(=O)Cc4ccccc4Cl)c(Cl)cc3[nH]2)c1` [Example 93, 1-[6-Chloro-5-(2-chloro-phenylmethanesulfonyl)-1H-benzoimidazol-2-yl]-1H-pyrazole-4-carboxylic Acid], on human PHD2181-417, the “Enzyme pIC50” value is on record as 7.5. In the experiment with Hep-3B cells, the EPO secretion, % of control compound came to 78.5%.
As for `O=C(O)c1cnn(-c2nc3cc(S(=O)(=O)CCc4ccccc4)c(Cl)cc3[nH]2)c1` [Example 94, 1-[6-Chloro-5-(2-phenyl-ethanesulfonyl)-1H-benzoimidazol-2-yl]-1H-pyrazole-4-carboxylic Acid], the “Enzyme pIC50” value on human PHD2181-417 stood at 7.4. The EPO secretion, % of control compound in the experiment with Hep-3B cells is 65.1%.
Regarding `CC[S+]([O-])c1cc2[nH]c(-n3cc(C(=O)O)cn3)nc2cc1Cl` (stereo not shown) [Example 95, 1-(5-Chloro-6-ethanesulfinyl-1H-benzoimidazol-2-yl)-1H-pyrazole-4-carboxylic Acid], at human PHD2181-417, the “Enzyme pIC50” value came out at 7.2. In addition, the EPO secretion, % of control compound in the experiment with Hep-3B cells turned out to be 46.3%.
On to `CCS(=O)(=O)c1cc2[nH]c(-n3cc(C(=O)O)cn3)nc2cc1Cl` [Example 96, 1-(5-Chloro-6-ethanesulfonyl-1H-benzoimidazol-2-yl)-1H-pyrazole-4-carboxylic Acid], for which, at human PHD2181-417, the “Enzyme pIC50” value turned out to be 7.4. Further, in the experiment on Hep-3B cells, the EPO secretion, % of control compound was found to be 67%.
On the same counts, the results for `CS(=O)(=O)c1cc2[nH]c(-n3cc(C(=O)O)cn3)nc2cc1C(F)(F)F` [Example 97, 1-(6-Methanesulfonyl-5-trifluoromethyl-1H-benzoimidazol-2-yl)-1H-pyrazole-4-carboxylic Acid] are 7.6 and 75.9%.
Turning to `CS(=O)(=O)c1cc2[nH]c(-n3cc(C(=O)O)cn3)nc2cc1F` [Example 98, 1-(5-Fluoro-6-methanesulfonyl-1H-benzoimidazol-2-yl)-1H-pyrazole-4-carboxylic Acid], the “Enzyme pIC50” value at human PHD2181-417 is listed as 7.3. For the same compound, the EPO secretion, % of control compound with Hep-3B cells was determined as 41.4%.
`CS(=O)(=O)c1cc2[nH]c(-n3cc(C(=O)O)cn3)nc2cc1Cl` [Example 99, 1-(5-Chloro-6-methanesulfonyl-1H-benzoimidazol-2-yl)-1H-pyrazole-4-carboxylic Acid]: the “Enzyme pIC50” value on human PHD2181-417 came to 7.4. In addition, the EPO secretion, % of control compound in the experiment with Hep-3B cells is 34.9%.
Turning to `CS(=O)(=O)c1cc2[nH]c(-n3cc(C(=O)O)cn3)nc2cc1OC(F)(F)F` [Example 100, 1-(6-Methanesulfonyl-5-trifluoromethoxy-1H-benzoimidazol-2-yl)-1H-pyrazole-4-carboxylic Acid], on human PHD2181-417, the “Enzyme pIC50” value was 7.5. The EPO secretion, % of control compound in the experiment with Hep-3B cells was 50.2%.
For `CC(C)S(=O)(=O)c1cc2[nH]c(-n3cc(C(=O)O)cn3)nc2cc1Cl` [Example 101, 1-[5-Chloro-6-(propane-2-sulfonyl)-1H-benzoimidazol-2-yl]-1H-pyrazole-4-carboxylic Acid], in that order: 7.3 and 62.2%.
For `CCCS(=O)(=O)c1cc2[nH]c(-n3cc(C(=O)O)cn3)nc2cc1Cl` [Example 102, 1-[5-Chloro-6-(propane-1-sulfonyl)-1H-benzoimidazol-2-yl]-1H-pyrazole-4-carboxylic Acid], in that order: 7.5 and 54.9%.
Turning to `CCCS(=O)(=O)c1cc2[nH]c(-n3cc(C(=O)O)cn3)nc2cc1OC(F)(F)F` [Example 106, 1-[6-(Propane-1-sulfonyl)-5-trifluoromethoxy-1H-benzoimidazol-2-yl]-1H-pyrazole-4-carboxylic Acid], the “Enzyme pIC50” value at human PHD2181-417 is reported as 7.5. Besides, the EPO secretion, % of control compound in the experiment on Hep-3B cells was 124%.
Regarding `O=C(O)c1cnn(-c2nc3cc([S+]([O-])c4ccc(Cl)cc4)c(Cl)cc3[nH]2)c1` (stereo not shown) [Example 107], at human PHD2181-417, the “Enzyme pIC50” value is 7.2. The EPO secretion, % of control compound in the experiment with Hep-3B cells came to 47.6%.
With `C[S+]([O-])c1cc2[nH]c(-n3cc(C(=O)O)cn3)nc2cc1C(F)(F)F` (stereo not shown) [Example 108, 1-(6-Methanesulfinyl-5-trifluoromethyl-1H-benzoimidazol-2-yl)-1H-pyrazole-4-carboxylic Acid], at human PHD2181-417, the “Enzyme pIC50” value is 7.3. Also, in the experiment on Hep-3B cells, the EPO secretion, % of control compound is 20.4%.
Turning to `O=C(O)c1cnn(-c2nc3cc(F)c(Br)cc3[nH]2)c1` [Example 109, 1-(6-Bromo-5-fluoro-1H-benzoimidazol-2-yl)-1H-pyrazole-4-carboxylic Acid], at human PHD2181-417, the “Enzyme pIC50” value is reported as 6.7. Moreover, the EPO secretion, % of control compound in the experiment on Hep-3B cells is 99%.
On the same counts, the results for `O=C(O)c1cnn(-c2nc3c(F)cccc3[nH]2)c1` [Example 110, 1-(4-Fluoro-1H-benzoimidazol-2-yl)-1H-pyrazole-4-carboxylic Acid] are 6.2 and 45.9%.
Consider `O=C(O)c1cnn(-c2nc3c(F)c(F)ccc3[nH]2)c1` [Example 111, 1-(4,5-Difluoro-1H-benzoimidazol-2-yl)-1H-pyrazole-4-carboxylic Acid], for which, at human PHD2181-417, the “Enzyme pIC50” value worked out at 6.6. Further, the EPO secretion, % of control compound in the experiment on Hep-3B cells turned out to be 32.6%.
For `O=C(O)c1cnn(-c2nc3c(F)cc(F)cc3[nH]2)c1` [Example 112, 1-(4,6-Difluoro-1H-benzoimidazol-2-yl)-1H-pyrazole-4-carboxylic Acid], the “Enzyme pIC50” value on human PHD2181-417 worked out at 6.8. In addition, in the experiment on Hep-3B cells, the EPO secretion, % of control compound came out at 32%.
As to `O=C(O)c1cnn(-c2nc3cc(OC(F)(F)F)c(Cl)cc3[nH]2)c1` [Example 113, 1-(6-Chloro-5-trifluoromethoxy-1H-benzoimidazol-2-yl)-1H-pyrazole-4-carboxylic Acid], the “Enzyme pIC50” value at human PHD2181-417 stood at 6.98. Further, the EPO secretion, % of control compound with Hep-3B cells was determined as 109%.
On to `O=C(O)c1cnn(-c2nc3cc4ccccc4cc3[nH]2)c1` [Example 114, 1-(1H-Naphtho[2,3-d]imidazol-2-yl)-1H-pyrazole-4-carboxylic Acid], for which the “Enzyme pIC50” value at human PHD2181-417 amounted to 6.3. Besides, in the experiment on Hep-3B cells, the EPO secretion, % of control compound was found to be 144%.
With `O=C(O)c1cnn(-c2nc3c(ccc4ccccc43)[nH]2)c1` [Example 115, 1-(3H-Naphtho[1,2-d]imidazol-2-yl)-1H-pyrazole-4-carboxylic Acid], on human PHD2181-417, the “Enzyme pIC50” value is 6.1. Besides, the EPO secretion, % of control compound in the experiment on Hep-3B cells worked out at 50%.
Consider `Cc1c(F)ccc2[nH]c(-n3cc(C(=O)O)cn3)nc12` [Example 116, 1-(5-Fluoro-4-methyl-1H-benzoimidazol-2-yl)-1H-pyrazole-4-carboxylic Acid], for which, at human PHD2181-417, the “Enzyme pIC50” value is listed as 5.8. Besides, the EPO secretion, % of control compound in the experiment on Hep-3B cells is 18.3%.
For `O=C(O)c1cnn(-c2nc3cc(N4CCCCC4)c(OC(F)(F)F)cc3[nH]2)c1` [Example 117, 1-(5-Piperidin-1-yl-6-trifluoromethoxy-1H-benzoimidazol-2-yl)-1H-pyrazole-4-carboxylic Acid], in that order: 6.5 and 80%.
On the same counts, the results for `O=C(O)c1cnn(-c2nc3cc(F)c(N4CCCCC4)cc3[nH]2)c1` [Example 118, 1-(5-Fluoro-6-piperidin-1-yl-1H-benzoimidazol-2-yl)-1H-pyrazole-4-carboxylic Acid] are 6.8 and 152%.
For the compound `CCOc1cc2[nH]c(-n3cc(C(=O)O)cn3)nc2cc1F` [Example 119, 1-(6-Ethoxy-5-fluoro-1H-benzoimidazol-2-yl)-1H-pyrazole-4-carboxylic Acid], at human PHD2181-417, the “Enzyme pIC50” value turned out to be 6.5. The EPO secretion, % of control compound in the experiment with Hep-3B cells came out at 69%.
In the case of `O=C(O)c1cnn(-c2nc3cc(C(=O)Nc4ccccc4)ccc3[nH]2)c1` [Example 120, 1-(5-Phenylcarbamoyl-1H-benzoimidazol-2-yl)-1H-pyrazole-4-carboxylic Acid], on human PHD2181-417, the “Enzyme pIC50” value was 6.9. Moreover, the EPO secretion, % of control compound in the experiment on Hep-3B cells was 21.1%.
For `O=C(O)c1cnn(-c2nc3cc(C(=O)NCc4ccccc4)ccc3[nH]2)c1` [Example 121, 1-(5-Benzylcarbamoyl-1H-benzoimidazol-2-yl)-1H-pyrazole-4-carboxylic Acid], in that order: 7.1 and 18.5%.
Take `O=C(O)c1cnn(-c2nc3cc(C(=O)NN4CCOCC4)ccc3[nH]2)c1` [Example 122, 1-[5-(Morpholin-4-ylcarbamoyl)-1H-benzoimidazol-2-yl]-1H-pyrazole-4-carboxylic Acid]: at human PHD2181-417, the “Enzyme pIC50” value stood at 6.6. For the same compound, in the experiment with Hep-3B cells, the EPO secretion, % of control compound was 5.4%.
With `O=C(O)c1cnn(-c2nc3cc(COCc4ccccc4)ccc3[nH]2)c1` [Example 123, 1-(5-Benzyloxymethyl-1H-benzoimidazol-2-yl)-1H-pyrazole-4-carboxylic Acid], the “Enzyme pIC50” value on human PHD2181-417 was 6.3. The EPO secretion, % of control compound in the experiment with Hep-3B cells is 61.1%.
As to `O=C(O)c1cnn(-c2nc3c(Br)cc(F)cc3[nH]2)c1` [Example 124, 1-(4-Bromo-6-fluoro-1H-benzoimidazol-2-yl)-1H-pyrazole-4-carboxylic Acid], at human PHD2181-417, the “Enzyme pIC50” value came to 6.3. In addition, the EPO secretion, % of control compound in the experiment on Hep-3B cells is 2.4%.
